Data from PMC10714399, “Open Source Antibiotics: Simple Diarylimidazoles Are Potent against Methicillin-Resistant Staphylococcus aureus” (ACS Infectious Diseases, 2023).
In brackets after ≈: the same amount, converted by molar mass.

Key:
[1] = system: Staphylococcus aureus NCTC 13373 (mecA-positive; methicillin-resistant); experiment: In vitro antibacterial activity, MIC (UCL School of Pharmacy assay), MRSA; assay type: cell-based; conditions: Staphylococcus aureus, UCL; read-out: MRSA MIC (UCL)
Method in brief: (§1)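 Broth microdilution MIC in isosensitest broth; inoculum from overnight tryptone soya agar culture suspended in PBS to A600 0.1 (~1 × 10^8 CFU/mL), then diluted 1:100. Compounds tested as 2-fold series from 32 to 0.03 μg/mL, DMSO at most 2%; vancomycin as quality control.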

[2] = system: Enterococcus faecalis ATCC 51299 (vanA-positive; vancomycin-resistant); experiment: In vitro antibacterial activity, MIC (UCL), VRE; assay type: cell-based; conditions: read-out: VRE MIC (UCL)
Method in brief: as §1

[3] = Aqueous solubility; assay type: physicochemical; conditions: NEU
[4] = LogD7.4 (Chrom Log D); assay type: physicochemical; conditions: chromatographic system (Chrom Log D); pH 7.4, NEU; read-out: LogD 7.4 (NEU)
[5] = Human liver microsome intrinsic clearance; assay type: in vitro ADME; conditions: human liver microsomes, NEU
[6] = Rat hepatocyte intrinsic clearance; assay type: in vitro ADME; conditions: rat hepatocytes, NEU
[7] = system: MRC-5SV2 (human lung fibroblast cell line); experiment: Toxicity against MRC-5SV2; assay type: cell-based; conditions: MRC5 cells
Description: (§2) ADME and toxicity for compounds were measured according to procedures outlined in the manuscript submitted in parallel to this one;2 other procedures were used for those compounds analysed by Monash University (in vitro ADME) or UCL (toxicity), both described in the main

[8] = system: PMM (primary mouse macrophages); experiment: Toxicity against PMM; assay type: cell-based; conditions: PMM
Description: as §2

[9] = system: U2OS; experiment: Toxicity against U2OS; assay type: cell-based; conditions: U2OS cells
From the text: Supplement id3c00286_si_002.xlsx, sheet "Series 2 Data" | column: U2OS TC50 (uM)

[10] = system: THP1; experiment: Toxicity against THP1; assay type: cell-based; conditions: THP1 cells
From the text: Supplement id3c00286_si_002.xlsx, sheet "Series 2 Data" | column: THP1 TC50 (uM)

[11] = Kinetic solubility estimation using nephelometry (Monash); assay type: physicochemical; conditions: for Sol 2.0: 0.01 M HCl, approx pH 2.0; for Sol 6.5: pH 6.5 phosphate buffer
Description: Compound in DMSO was spiked into either pH 6.5 phosphate buffer or 0.01 M HCl (approximately pH 2.0) with the final DMSO concentration being 1%. […]
b) Kinetic Solubility Estimation using Nephelometry (SolpH)
Compound in DMSO was spiked into either pH 6.5 phosphate buffer or 0.01 M HCl (approx pH 2.0) with the final
DMSO concentration being 1%. After 30 minutes had elapsed, samples were then analysed via Nephelometry to
determine a solubility range. See Bevan and Lloyd (2000) Anal Chem, 72:1781-1787. […]
(§3) In Vitro Intrinsic Clearance […]
(§4) Experimental results are tabulated on the following page(s).
(§5) (1 picture or pasted object on this page, not shown here)

[12] = Distribution coefficient estimation using chromatography, gLogD (Monash); assay type: physicochemical
From the text: Partition coefficient values (LogD) of the test compounds were estimated at pH 7.4 by the correlation of their chromatographic retention properties against the characteristics of a series of standard compounds with known partition coefficient values. The method employed is a gradient HPLC-based derivation of the method developed by Lombardo.[42] […]
c) Distribution Coefficient Estimation using Chromatography (gLogDpH)
Partition coefficient values (LogD) of the test compounds were estimated at pH 7.4 by correlation of their
chromatographic retention properties against the characteristics of a series of standard compounds with known
partition coefficient values. […]
as §3, §4, §5

[13] = In vitro metabolic stability, human liver microsomes (Monash); assay type: in vitro ADME; conditions: NADPH
Description: (§6) The metabolic stability assay was performed by incubating each test compound with a suspension of liver microsomes (0.4 mg/mL protein, 1 μM substrate, 37 °C). Microsomes were purchased from XenoTech. The metabolic reaction was initiated by the addition of an NADPH-regenerating system and quenched at various time points over a 60 min incubation by the addition of acetonitrile containing metolazone as an internal standard. Control samples (containing no NADPH) were included (quenched at 2, 30, and 60 min) to monitor for potential degradation in the absence of cofactor. […]
(§7) d) In Vitro Metabolic Stability
(§8) The metabolic stability assay was performed by incubating each test compound with a suspension of liver
(§9) microsomes (0.4 mg/mL, 37°C). The metabolic reaction was initiated by the addition of an NADPH-regenerating
(§10) system and quenched at various time points over a 60 minute incubation by the addition of acetonitrile containing
(§11) metolazone as internal standard. Control samples (containing no NADPH) were included (quenched at 2, 30 and 60
(§12) minutes) to monitor for potential degradation in the absence of cofactor.
(§13) The human liver microsomes used in this experiment were supplied by XenoTech, lot # 1710084.The rat liver
(§14) microsomes used in this experiment were supplied by XenoTech, lot # 1610290. Microsomal incubations were
(§15) performed at a substrate concentration of 1 µM.
(§16) Data analysis and interpretation:
(§17) Substrate depletion as a function of time was analysed as described by Obach (1999) Drug Metab. Dispos., 27:1350-
(§18) 1359. Intrinsic clearance (CLint) values were classified at the limits of low and high clearance bands based on a
(§19) rearrangement of the well stirred model of hepatic elimination. It should be noted that the potential impact of
(§20) compound binding (either in microsomes or in blood) on the relationship between in vitro intrinsic clearance and
(§21) hepatic clearance in vivo has not been accounted for in these studies.
(§22) In Vitro Intrinsic Clearance
(§23) Species (µL/min/mg protein)
(§24) Low Clearance High Clearance
as §4, §5

[14] = In vitro metabolic stability, rat liver microsomes (Monash); assay type: in vitro ADME; conditions: NADPH
Description: as §6, §7, §8, §9, §10, §11, §12, §13, §14, §15, §16, §17, §18, §19, §20, §21, §22, §23, §24, §4, §5

MIC [1] [µg/mL]	MIC [2] [µg/mL]	Aqueous Solubility (NEU) [3] [µM]	chromatographic logD [4]	HLM CLint (NEU) [5] [uL/min/mg protein]	Rat Hep CLint (NEU) [6] [uL/min/10x6 cells]	Sol 2.0 [11] [µg/mL]	Sol 6.5 [11] [µg/mL]	gLogD at pH 7.4 [12]	CLint, in vitro [13] [µL/min/mg protein]	T1/2 [13] [min]	CLint, in vitro [14] [µL/min/mg protein]	T1/2 [14] [min]	SMILES	MRC5 TC50 [7] [µM]	PMM TC50 [8] [µM]	U2OS TC50 [9] [µM]	THP1 TC50 [10] [µM]
32 (≈ 111 µM)	> 32	178	3	168	49.8	–	–	–	–	–	–	–	Fc1ccc(-c2c(-c3ccccn3)nc3ccccn23)cc1 [OSA_000859]	10.3	32	4.54	17
–	–	–	–	–	–	25 to 50	12.5 to 25	1.6	37	47	74	23	c1ccc(-c2nc3n(c2-c2ccc4c(c2)OCO4)CCS3)nc1 [UNC-ALM-DAI-16]	–	–	–	–
–	–	–	–	–	–	> 100	25 to 50	1.8	47	37	99	18	c1ccc(-c2nc3ccccn3c2-c2ccc3c(c2)OCO3)nc1 [UNC-ALM-DAI-18]	–	–	–	–
–	–	–	–	–	–	> 100	25 to 50	1.9	51	34	72	24	c1ccc(-c2nc3n(c2-c2ccc4occc4c2)CCC3)nc1 [UNC-ALM-DAI-27]	–	–	–	–
